Counter-ions that a name gives are not always drawn. Like-named read-outs stand apart in the source and are kept apart here.
How the values were obtained:
[1] = tested on: NCI-H292 lung cancer cells; assay: FDA drug screening, complete media vs cholesterol-free media without statin (TABLE 1); format: cell-based, human
[2] = tested on: NCI-H292 lung cancer cells; assay: FDA drug screening, complete media vs cholesterol-free media with simvastatin (TABLE 2); format: cell-based, human
[3] = Complete minus Cholesterol-free, […]
[4] = NCI-H292 cells, cholesterol-free media without statin
[5] = NCI-H292 cells, drug in complete media
[6] = Complete minus Cholesterol-free, greater than 0 enhanced anti-cancer activity, about 0 neutral, below 0 antagonists
[7] = NCI-H292 cells in cholesterol-free media without statin
[8] = NCI-H292 cells in complete media
[9] = NCI-H292 cells, drug in cholesterol-free media with simvastatin 0.04 μM
[10] = complete media vs cholesterol-free media + simvastatin (0.04 μM), >0 enhanced anti-cancer activity, about 0 neutral, <0 antagonist
[11] = complete vs cholesterol-free media, greater than 0 enhanced anti-cancer activity, about 0 neutral, below 0 antagonists
[12] = NCI-H292 cells, FDA library drug in cholesterol-free media with simvastatin 0.04 μM
[13] = NCI-H292 cells, FDA library drug in complete media
[14] = Complete minus Cholesterol-free, greater than 0 enhanced anti-cancer activity, about 0 neutral, below 0 antagonist
[15] = NCI-H292 cells, FDA drug library screen, cholesterol-free media without statin
[16] = NCI-H292 cells, FDA drug library screen, complete media
[17] = Complete minus Cholesterol-free, >0 enhanced anti-cancer activity, about 0 neutral, <0 antagonist
[18] = NCI-H292 cells, cholesterol-free media without statin, FDA drug library screen
[19] = NCI-H292 cells, complete media, FDA drug library screen
[20] = NCI-H292 cells, FDA drug library screen, cholesterol-free media with simvastatin 0.04 μM
[21] = complete media minus cholesterol-free media + simvastatin, >0 enhanced anti-cancer activity, about 0 neutral, <0 antagonist
[22] = complete vs cholesterol-free media, >0 enhanced anti-cancer activity, about 0 neutral, <0 antagonist
[23] = NCI-H292 cells, cholesterol-free media with simvastatin 0.04 μM, cell growth value in FDA drug screen

Dihydroergotamine (mesylate)
Difference [1, 3]: −0.20
Cholesterol-free [1, 4]: 1.021
Complete ([1]; NCI-H292 cells, complete media): 0.8213
Complete Media [2, 5]: 0.9713
Difference ([2]; complete media vs cholesterol-free media + simvastatin (0.04 μM), […]): −0.18

Nc1cc(-c2ccncc2)c[nH]c1=O [Amrinone]
Difference [1, 6]: −0.48
Cholesterol-free [1, 7]: 1.339
Complete [1, 8]: 0.861
Cholesterol-free media + simvastatin (0.04 μM) [2, 9]: 1.157
Complete Media [2, 5]: 0.9441
Difference [2, 10]: −0.21

CCCCN(CCCC)CCC(O)c1cc2c(Cl)cc(Cl)cc2c2cc(C(F)(F)F)ccc12 (stereo not drawn) [Halofantrine hydrochloride]
Cholesterol-free [1, 4]: 1.176
Complete ([1]; NCI-H292 cells, complete media): 0.7446
Difference [1, 11]: −0.43
Cholesterol-free media + simvastatin (0.04 μM) [2, 12]: 1.233
Complete Media [2, 13]: 0.9282
Difference [2, 10]: −0.30

C=CC[N+]1([C@H]2C[C@H]3[C@@H]4CC[C@H]5C[C@H](O)[C@@H](N6CCOCC6)C[C@]5(C)[C@H]4CC[C@]3(C)[C@H]2OC(C)=O)CCCC1.[Br-] [Rocuronium (Bromide)]
Cholesterol-free [1]: 0.9624
Complete [1]: 0.9092
Difference [1]: −0.05
Cholesterol-free media + simvastatin (0.04 μM) [2]: 0.8493
Complete Media [2]: 1.097
Difference [2]: 0.25

CC(C)Cc1ccc(C(C)C(=O)OCc2ccccn2)cc1 (stereo not drawn) [Ibuprofen piconol]
Difference [1, 14]: −0.18
Cholesterol-free [1, 15]: 1.26
Complete [1, 16]: 1.082
Cholesterol-free media + simvastatin (0.04 μM) [2, 12]: 1.357
Complete Media [2, 13]: 0.8958
Difference [2, 10]: −0.46

COC(=O)N[C@H](C(=O)N1CCC[C@H]1c1nc(-c2ccc(-c3ccc(-c4c[nH]c([C@@H]5CCCN5C(=O)[C@@H](NC(=O)OC)C(C)C)n4)cc3)cc2)c[nH]1)C(C)C [Daclatasvir (dihydrochloride)]
Difference [1, 17]: 0.02
Cholesterol-free [1, 18]: 1.025
Complete [1, 19]: 1.046
Cholesterol-free media + simvastatin (0.04 μM) [2, 12]: 1.149
Complete Media [2, 13]: 0.7215
Difference [2, 10]: −0.43

Varenicline (Tartrate)
Difference [1, 3]: −0.52
Cholesterol-free [1, 7]: 1.334
Complete [1, 8]: 0.8157
Cholesterol-free media + simvastatin (0.04 μM) ([2]; NCI-H292 cells, cholesterol-free media with simvastatin 0.04 μM, FDA drug library screen (TABLE 2)): 1.729
Complete Media ([2]; NCI-H292 cells, complete media, FDA drug library screen (TABLE 2)): 1.705
Difference ([2]; complete media minus cholesterol-free media + simvastatin (0.04 μM), […]): −0.02

CCN[C@@H]1C[C@H](N)[C@@H](O[C@H]2OC(CN)=CC[C@H]2N)[C@H](O)[C@H]1O[C@H]1OC[C@](C)(O)[C@H](NC)[C@H]1O.CCN[C@@H]1C[C@H](N)[C@@H](O[C@H]2OC(CN)=CC[C@H]2N)[C@H](O)[C@H]1O[C@H]1OC[C@](C)(O)[C@H](NC)[C@H]1O.O=S(=O)(O)O.O=S(=O)(O)O.O=S(=O)(O)O.O=S(=O)(O)O.O=S(=O)(O)O [Netilmicin (sulfate)]
Cholesterol-free [1, 4]: 1.778
Complete ([1]; NCI-H292 cells, complete media): 1.428
Difference [1, 11]: −0.35
Cholesterol-free media + simvastatin (0.04 μM) [2, 20]: 1.19
Complete Media [2, 16]: 1.538
Difference [2, 21]: 0.35

CN1C(=O)CC(c2ccccc2)C1=O (stereo not drawn) [Phensuximide]
Difference [1, 17]: −0.30
Cholesterol-free [1, 4]: 1.128
Complete ([1]; NCI-H292 cells, complete media): 0.8334
Cholesterol-free media + simvastatin (0.04 μM) [2, 9]: 1.556
Complete Media [2, 5]: 1.333
Difference [2, 10]: −0.22

N#Cc1cc(NC(=O)C(=O)O)c(Cl)c(NC(=O)C(=O)O)c1 [Lodoxamide]
Difference [1, 17]: −0.26
Cholesterol-free [1, 4]: 1.144
Complete ([1]; NCI-H292 cells, complete media): 0.8858
Cholesterol-free media + simvastatin (0.04 μM) [2, 9]: 1.021
Complete Media [2, 5]: 0.7589
Difference [2, 10]: −0.26

Clc1ccc(C(Cn2ccnc2)OCc2ccsc2Cl)c(Cl)c1 (stereo not drawn) [Tioconazole]
Difference [1, 17]: −0.27
Cholesterol-free [1, 4]: 1.207
Complete ([1]; NCI-H292 cells, complete media): 0.9413
Cholesterol-free media + simvastatin (0.04 μM) [2, 20]: 0.669
Complete Media [2, 16]: 0.9672
Difference [2, 21]: 0.30

CS(=O)(=O)c1ccc([C@@H](O)[C@@H](CO)NC(=O)C(Cl)Cl)cc1 [Thiamphenicol]
Cholesterol-free [1, 18]: 0.8085
Complete [1, 19]: 0.9105
Difference [1, 22]: 0.10
Cholesterol-free media + simvastatin (0.04 μM) [2, 20]: 0.911
Complete Media [2, 16]: 0.7958
Difference [2, 10]: −0.12

NC(=O)N1c2ccccc2CC(=O)c2ccccc21 [Oxcarbazepine]
Cholesterol-free [1, 18]: 0.8341
Complete [1, 19]: 1.538
Difference [1, 22]: 0.70
Cholesterol-free media + simvastatin (0.04 μM) [2, 12]: 1.305
Complete Media [2, 13]: 0.9097
Difference [2, 10]: −0.40

CO/N=C(\C(=O)N[C@@H]1C(=O)N2C(C(=O)O)=C(COC(C)=O)CS[C@H]12)c1csc(N)n1 [Cefotaxime]
Difference [1, 6]: −0.57
Cholesterol-free [1, 7]: 1.225
Complete [1, 8]: 0.66
Cholesterol-free media + simvastatin (0.04 μM) [2, 20]: 0.9945
Complete Media [2, 16]: 0.8998
Difference [2, 10]: −0.09

Clc1ccc2c(N3CCN(CCCN4CCN(c5ccnc6cc(Cl)ccc56)CC4)CC3)ccnc2c1
Cholesterol-free [1, 4]: 1.226
Complete ([1]; NCI-H292 cells, complete media): 0.8255
Difference ([1]; complete vs cholesterol-free media, […]): −0.40
Cholesterol-free media + simvastatin (0.04 μM) [2, 20]: 0.9008
Complete Media [2, 16]: 1.047
Difference ([2]; complete media minus cholesterol-free media + simvastatin, […]): 0.15

O=C(NCC(O)CO)c1c(I)c(C(=O)NCC(O)CO)c(I)c(N(CCO)C(=O)CO)c1I (stereo not drawn) [Ioversol]
Difference [1, 14]: −0.10
Cholesterol-free [1, 15]: 1.162
Complete [1, 16]: 1.064
Cholesterol-free media + simvastatin (0.04 μM) [2, 23]: 1.012
Complete Media ([2]; NCI-H292 cells, complete media, cell growth value in FDA drug screen): 1.097
Difference [2, 21]: 0.09

Cc1onc(-c2c(Cl)cccc2Cl)c1C(=O)N[C@@H]1C(=O)N2[C@@H]1SC(C)(C)[C@@H]2C(=O)O [Dicloxacillin (Sodium hydrate)]
Difference [1, 17]: 0.01
Cholesterol-free [1, 18]: 0.8462
Complete [1, 19]: 0.855
Cholesterol-free media + simvastatin (0.04 μM) [2, 20]: 1.145
Complete Media [2, 16]: 1.008
Difference [2, 10]: −0.14

COc1cc(N2CCC(N3CCN(C)CC3)CC2)ccc1Nc1ncc(Cl)c(Nc2ccccc2P(C)(C)=O)n1 [Brigatinib]
Cholesterol-free [1, 18]: 0.5531
Complete [1, 19]: 0.9482
Difference [1, 22]: 0.40
Cholesterol-free media + simvastatin (0.04 μM) [2, 9]: 0.8361
Complete Media [2, 5]: 0.6309
Difference [2, 10]: −0.21

Clemastine (fumarate)
Difference [1, 6]: −0.61
Cholesterol-free [1, 7]: 1.716
Cholesterol-free media + simvastatin (0.04 μM) [2, 23]: 0.8829
Difference [2, 21]: 0.12

O=C(OCC(O)CO)c1ccccc1Nc1ccnc2cc(Cl)ccc12 (stereo not drawn) [Glafenine (hydrochloride)]
Cholesterol-free [1]: 1.367
Complete [1]: 1.255
Difference [1]: −0.11
Cholesterol-free media + simvastatin (0.04 μM) [2]: 0.8957
Complete Media [2]: 0.9245
Difference [2]: 0.03

Source: patent publication US20250144067A1, “PERSONALIZED STARVATION THERAPY FOR CANCER” (Faeth Therapeutics, Inc., priority 2021, published 2025)
